Laboratory results reported in article PMC9694488, “Amyloid beta and its naturally occurring N-terminal variants are potent activators of human and mouse formyl peptide receptor 1” (The Journal of Biological Chemistry, 2022).

What was measured:
hFPR1, hFPR2, hFPR3 = assay: Ca2+ imaging, human FPRs taken together; assay type: cell-based; conditions: transfected HEK293T
ThT aggregation assay = assay type: physicochemical
Experimental: DMSO. ThT (Sigma-Aldrich) stock solutions were dissolved at 1 mM in the respective buffer, sterile filtered with […] pore membranes, and stored at −20 °C. […] Fluorescence measurements were carried out as 100 μl triplicates in black optical 384-well μCLEAR-plates (Greiner Bio-One) at 37 °C with excitation at 440 nm and emission at 484 nm in a FlexStation III microplate reader within 15 min after thawing of the peptides. Signals were measured in intervals of 60 s for 120 min and were shaken for 3 s before each read.

hFPR1 [1] = assay: Ca2+ imaging, HEK293T transiently transfected with hFPR1; assay type: cell-based, human
mouse and human FPR1 = system: mouse and human FPR1; parameters: method as in Tiffany et al.; conditions: ref Tiffany et al.; cited from earlier work
human and mouse FPRs = assay: Ca2+ imaging, FPR-transfected HEK293T (several human and mouse FPRs taken together); assay type: cell-based
Experimental: (§2) All peptides were thawed at room temperature approximately 1 h before each functional experiment, as this time was needed to prepare the compound plates for each measurement.
(§3) HEK293T cells (ATCC) were cultured in Dulbecco’s Modified Eagle’s medium (DMEM, Biowest) supplemented with 10% (v/v) heat-inactivated fetal calf serum (FCS, Pan Biotech), 1 unit/ml penicillin-streptomycin (Biowest), and 2 mM L-glutamine (Biowest) until 80% confluence. For transfection, approximately 2000 cells were seeded in each well of poly-D-lysine–coated (PDL) (10 μg/ml in PBS, Sigma) black optical 96-well μCLEAR-plates (Greiner Bio-One). Cells were transfected after 24 h using jetPEI (Polyplus-transfection SA) with 0.125 μg of DNA plasmids encoding the respective receptors and equal amounts of a plasmid encoding the G protein subunit Gα16 since this subunit is needed to trigger FPR-dependent calcium signals in HEK293 cells ([50], [70]). The medium of transfected cells was changed 24 h after transfection. For mock transfections, the proportion of the FPR-containing plasmids were substituted by an empty pcDNA3.1 vector.
(§4) Cell population responses of transfected HEK293T cells and U87 cells were recorded using a Flexstation III microplate reader (Molecular Devices). Briefly, cells were incubated with 2 μM Calbryte 520 AM (AAC Bioquest) for 2 h at room temperature in C1 assay buffer with 5 mM glucose (Carl Roth). Before each experiment, cells were rinsed three times with C1. Experiments with HEK293T cells were conducted 48 h after transfection, while experiments with U87 cells were performed 24 h after seeding. Acquisition of baseline fluorescence was performed for 25 s before ligand application, and cell population response was measured for 125 s after application.

mFpr3 = assay: Ca2+ imaging, HEK293T transiently transfected with mFpr3; assay type: cell-based, mouse; conditions: Aβ1-42 from P&E in C1 buffer; n = 3, N = 2
monocytes and microglia = conditions: cited from earlier work
From the text: Factors such as the secondary structure, 3D conformation, and aggregation therefore seem to be of high importance for the precise activation pattern, and different receptor subtypes seem to prefer different peptide structures or exposed surfaces. Multiple previous studies have already shown that different buffer systems and solvents can critically influence properties of Aβ such as its aggregation kinetics and the structure ...

human and murine FPR2 = conditions: cell lines transfected with human and murine FPR2; cited from earlier work
From the text: (§1) The activation of PRRs by Aβ has become a recent focus in AD research because they have a special ability to potently trigger the reactive state ([14], [25]). Among these PRRs, FPRs are one of the promising targets for AD research ([12]). They belong to a small gene family of G protein–coupled receptors with three members in humans and seven in mice ([26]). FPRs are primarily expressed in the innate and adaptive immune system, where they contribute to the detection and elimination of bacterial pathogens ([27], [28], [29], [30]). However, they are also expressed in a number of cell types in the ...

[2] = system: neutrophils and murine glial cells; conditions: cited from earlier work
From the text: as §1

[3] = system: rat microglia and astrocytes; conditions: cited from earlier work
From the text: as §1

[4] = system: primary murine glia and in vitro FPR expression systems; conditions: cited from earlier work
From the text: as §1

hFPR3 = assay: Ca2+ imaging, HEK293T transiently transfected with hFPR3
Experimental: as §2, §3, §4

[5] = CD spectroscopy (secondary structure); assay type: physicochemical; conditions: 30 μM in C1, sonicated 10 min, n = 3, N = 1
Experimental: CD spectra were recorded (JASCO J-1500 spectrometer) in a 1 mm High Precision Cell (Hellma Analytics). Data were processed in Spectra Analysis by JASCO and were plotted by Origin.

mFpr1 = assay: Ca2+ imaging, HEK293T transiently transfected with mFpr1; assay type: cell-based, mouse; conditions: for Ca2+ response, mFpr1: n = 3, N = 2
hFPR2 = assay: Ca2+ imaging, HEK293T transiently transfected with hFPR2; assay type: cell-based, human
Experimental: as §2, §3, §4

mFpr2 = assay: Ca2+ imaging, HEK293T transiently transfected with mFpr2; assay type: cell-based, mouse
Experimental: as §2, §3, §4

[6] = Transmission electron microscopy of aggregates; assay type: physicochemical; conditions: 30 μM, 24 h incubation
From the text: Samples were then stained with 4% uranyl acetate. Subsequently, TEM images were acquired (JEOL 1400 Transmission Electron Microscope) and then processed in ImageJ.

hFPR1 [7] = conditions: compared with this study; ref Le et al. and Slowik et al. (35, 42); cited from earlier work
[8] = 5 μM Aβ1-42 from P&E dissolved in DMSO vs C1, n = 3, N = 2
[9] = 5 μM Aβ1-42 from P&E, n = 3, N = 1
[10] = Aβ1-42 from Sigma-Aldrich, 10 μM, n = 3, N = 2
[11] = Aβ1-42 from Synpeptide, 10 μM, n = 3, N = 2
[12] = Ca2+ imaging, transfected HEK293T + Gα16, Calbryte 520, C1 buffer pH 7.2, n = 3, N = 1
[13] = HFIP-treated Aβ1-42 from Anaspec, 10 μM, n = 3, N = 2
[14] = different suppliers, buffers, storage, solvents

## Aβ1-42: Amyloid beta peptide, human WT sequence; from Peptides&Elephants, Anaspec (untreated or HFIP-treated), Sigma-Aldrich, Synpeptide
hFPR1, hFPR2, hFPR3
  response of hFPRs (in addition to hFPR2): all other hFPRs also responded
ThT aggregation assay; Aβ1-42 from P&E, 22.5 μM, in HBSS, 37 °C
  capability to form aggregates in HBSS: strong reduction in the capability to form aggregates
ThT aggregation assay; Aβ1-42 from Sigma-Aldrich, 22.5 μM in C1, 37 °C
  ThT fluorescence kinetics in the first 2 h: did not drastically change
ThT aggregation assay; Aβ1-42 from Synpeptide, 22.5 μM in C1, 37 °C
  ThT fluorescence kinetics in the first 2 h: did not drastically change
ThT aggregation assay; HFIP-treated Aβ1-42 from Anaspec (aggregation control), 22.5 μM, C1 with 0.2% DMSO, 37 °C
  ThT fluorescence kinetics in the first 2 h: showed the expected increase
ThT aggregation assay; non-HFIP–treated Aβ1-42 from Anaspec, 22.5 μM in C1, 37 °C
  ThT fluorescence kinetics in the first 2 h: showed a reduction of fluorescence
hFPR1 [1]; [8]
  decrease of hFPR1 response by DMSO: 40%
hFPR1 [1]; [9]
  reduction of signal amplitude, hFPR1, in Tris–NaCl versus C1: approximately 50%
hFPR1 [1]; Aβ1-42 from P&E in C1 buffer, n = 3, N = 2, compared with the other FPRs
  Ca2+ response, hFPR1: even more sensitive and had a higher signal amplitude than any other receptor
hFPR1 [1]; [10]
  Ca2+ response, hFPR1: failed to activate hFPR1
hFPR1 [1]; [11]
  Ca2+ response, hFPR1: the responses of hFPR1 and hFPR2 were lost
hFPR1 [1]; Ca2+ imaging, transfected HEK293T + Gα16, Calbryte 520, assay buffer C1 pH 7.2, peptide stock 30 μM in C1, n = 3, N = 1
  threshold for minimal detectable activation, hFPR1: 3 µM
Mouse and human FPR1
  activation of mouse and human FPR1 in an earlier study: failed to detect any activation of mouse and human FPR1
Human and mouse FPRs; 5 μM Aβ1-42 from P&E dissolved in HBSS, n = 3, N = 1
  FPR responses in HBSS: complete loss of nearly all FPR responses
Human and mouse FPRs; [9]
  FPR responses in C1 compared with HBSS and Tris–NaCl: most robust activation of human and mouse FPRs in C1
Human and mouse FPRs; 10 μM Aβ1-42 (Synpeptide), stored in C1 at -20 °C for 6 months vs freshly dissolved, n = 1, N = 2
  FPR response pattern after extended storage: Alterations of FPR responses
Human and mouse FPRs; [10]
  Ca2+ response pattern of mouse and human FPRs: elicited a similar response pattern as that of P&E
Human and mouse FPRs; non-HFIP–treated Aβ1-42 from Anaspec, 10 μM, n = 3, N = 2
  Ca2+ response, mouse and human FPRs other than mFpr1: failed to activate any other mouse or human FPR
mFpr3
  Ca2+ response, mFpr3: did not respond
Monocytes and microglia
  FPR-dependent signaling with progressing aggregation: lost FPR-dependent signaling with progressing aggregation
Human and murine FPR2
  calcium mobilization and ERK signaling: can induce calcium mobilization and ERK signaling
[2]
  FPR2-dependent pro-inflammatory effects: led to the induction of oxidative stress, the release of pro-inflammatory cytokines, and chemotaxis
[3]
  cAMP and ERK phosphorylation in rat microglia and astrocytes: induced a decrease of cAMP and an induction of ERK phosphorylation
[4]
  intracellular uptake via FPRs: FPRs mediate the intracellular uptake of Aβ1-42
hFPR3; [8]
  increase of hFPR3 response by DMSO: 32%
hFPR3; [9]
  hFPR3 response in Tris–NaCl versus C1: did not significantly alter the responses of hFPR3
hFPR3; [12]
  threshold for minimal detectable activation, hFPR3: 3 µM
hFPR3; [13]
  Ca2+ response, hFPR3: weakly activated hFPR3, mFpr1, and mFpr2
hFPR3; [14]
  hFPR3 activation over all suppliers, buffers and solvents: activated under almost all conditions
[5]; Aβ1-42 from P&E
  β-turn proportion in comparison with the Anaspec peptides: significantly elevated β-turn proportions
[5]; Aβ1-42 from Synpeptide
  β-turn proportion in comparison with the Anaspec peptides: significantly elevated β-turn proportions
mFpr1; Aβ1-42 from P&E in C1 buffer, compared with the other FPRs
  Ca2+ response, mFpr1: even more sensitive and had a higher signal amplitude than any other receptor
mFpr1; [12]
  threshold for minimal detectable activation, mFpr1: 500 nM
mFpr1; HFIP-treated Aβ1-42 from Anaspec, 10 μM
  Ca2+ response, mFpr1: weakly activated hFPR3, mFpr1, and mFpr2
mFpr1; [14]
  mFpr1 activation over all suppliers, buffers and solvents: activated under almost all conditions
mFpr1; non-HFIP–treated Aβ1-42 from Anaspec, 10 μM
  Ca2+ response, mFpr1: potently activated mFpr1
hFPR2; [11]
  Ca2+ response, hFPR2: the responses of hFPR1 and hFPR2 were lost
hFPR2; [12]
  threshold for minimal detectable activation, hFPR2: 3 µM
mFpr2; [12]
  threshold for minimal detectable activation, mFpr2: 3 µM
mFpr2; [13]
  Ca2+ response, mFpr2: weakly activated hFPR3, mFpr1, and mFpr2
[6]; Aβ1-42 from P&E
  TEM aggregate morphology: somewhat similar amorphous morphology
[6]; Aβ1-42 from Synpeptide
  TEM aggregate morphology: somewhat similar amorphous morphology
[6]; HFIP-treated Aβ1-42 from Anaspec
  TEM aggregate morphology: somewhat similar amorphous morphology
[6]; non-HFIP–treated Aβ1-42 from Anaspec
  TEM aggregate morphology: seemed to directly form long fibers
hFPR1 [7]
  hFPR1 response to Aβ1-42 in earlier studies: far less pronounced
